# Test results as given in patent publication US20250195660A1, “INACTIVATING BACTERIA WITH ELECTRIC PULSES AND ANTIBIOTICS” (Purdue Research Foundation, priority 2018, published 2025).
# How the values were obtained:
# Type in all cases: cell-based
# [1] = tested on: Klebsiella pneumoniae (ATCC BAA-2146 NDM-I positive); assay: Inactivation of K. pneumoniae by 300 ns electric pulses and/or antibiotics (CFU plating)
# Source text: (§1) Except for rifampicin, the five other antibiotics in these examples primarily target gram-positive bacteria and are largely ineffective or not used against gram-negative bacteria in a clinical setting.
# (§2) A Blumlein pulsed generator consisting of two lines comprised of twelve 2000 pF capacitors connected by inductors produced 300 ns EPs with rise-times of 30 ns and fall-times of 35 ns at a repetition frequency of 1 Hz (12). The EPs were applied to a standard 2 mm gap electroporation cuvette (Dot Scientific R) filled with a solution containing the microorganisms. Used was a Luria broth of 0.5% salinity (5 grams of NaCl/Liter) for the solution to electrically match the resistance of the sample with the impedance of the pulse generator (11Ω) to prevent signal reflection. The voltage measurements were taken using a LeCroy PPE 20 kV high voltage probe with a 1000:1 attenuation recorded by a TeleDyne LeCroy® Waverunner 6 Zi Oscilloscope with a bandwidth of 4 GHZ.
# (§3) The gram-negative strains included a carbapenem-resistant Escherichia coli (ATCC® BA-2452TM, New Delhi metallo-beta-lactamase NDM-1 positive.), Klebsiella pneumoniae (ATCC® BAA-2146TM NDM-I positive), and a gentamicin, streptomycin and sulfonamide resistant Pseudomonas aeruginosa (BEI Resources NR-31040). Assessed was the gram-positive strain of methicillin resistant Staphylococcus aureus (USA300-0114 strain), which is also resistant to erythromycin and tetracycline. Samples were cultured in Luria broth (LB Broth Lennox, powder microbial growth medium, SIGMA-ALDRICH®) by taking 25 mL of broth in a 50 mL sterile conical tube and incubating in a shaker for 16 h at 37° C. Samples were diluted 50% by adding 25 mL media to the incubated sample as we plated controls for each experiment and condition.
# (§4) Samples were treated in 2 mm gap cuvettes containing 365 μL of sample between the electrodes, with bio-grade mineral oil added on top of the electrode plates to prevent arcing.
# (§5) To establish a common baseline for comparing different NSEP parameters, we fixed the energy density U delivered to the cuvettes according to Formula (1) (above). For 300 ns EPs, 500 EPs at 20 kV/cm and 222 EPs at 30 kV/cm delivered the same energy to the sample.
# (§6) Tissue culture Petri dishes from VWR R (15 cm diameter, 10 mm height) were utilized for plating. Each plate was covered with 15 mL of Luria broth (Agar, microbiology tested powder, SIGMA-ALDRICH®), which was prepared by adding 20 g of LB Lennox (SIGMA-ALDRICH) and 15 g/L of agar to water prior to being autoclaved. The salinity of the agar was the same as the LB (0.5% NaCl) to minimize additional environmental stressors on the bacteria.
# (§7) Removed was 20 μL from each cuvette and added to 180 μL of PBS in a 96-well dish in triplicate. Each well was then diluted by a ratio of 10:1 five additional times by taking 20 μL of the diluted sample into subsequent wells using multi-channel pipettes (using fresh tips for each dilution). Plated were the six dilutions of each sample two times each by adding 4 μL from each well onto the Petri dish using a multi-channel pipette, which allowed the plating of all three replicates on the same plate to achieve n=6. These plates were then cultured overnight in an incubator at 37° C., and counted the next day.
# [2] = tested on: gentamicin, streptomycin and sulfonamide resistant Pseudomonas aeruginosa (BEI Resources NR-31040); assay: Inactivation of P. aeruginosa by 300 ns electric pulses and/or antibiotics (CFU plating); settings: for additional inactivation of P. aeruginosa: 20 kV/cm NSEPs + 2 μg/mL or 20 μg/mL
# Source text: as §1, §2, §3, §4, §5, §6, §7
# [3] = tested on: carbapenem-resistant Escherichia coli (ATCC BA-2452, NDM-1 positive); assay: Inactivation of carbapenem-resistant E. coli by 300 ns electric pulses and/or antibiotics (CFU plating); settings: drug alone, 2 μg/mL or 20 μg/mL, no EPs
# Source text: as §1, §2, §3, §4, §5, §6, §7
# [4] = tested on: methicillin resistant Staphylococcus aureus (USA300-0114 strain); assay: Inactivation of MRSA by 300 ns electric pulses and/or antibiotics (CFU plating)
# Source text: as §1, §2
# as §3, with “condition. […]” for “condition.”
# Removed was 20 μL from each cuvette and added to 180 μL of PBS in a 96-well dish in triplicate. […] These plates were then cultured overnight in an incubator at 37° C., and counted the next day.
Structure (SMILES),"additional inactivation compared to NSEPs alone, K. pneumoniae ([1]; 30 kV/cm NSEPs + 2 μg/mL) [log]",log reduction of K. pneumoniae ([1]; 30 kV/cm NSEPs + 2 μg/mL) [log],additional inactivation of P. aeruginosa [2],log reduction of P. aeruginosa ([2]; 30 kV/cm NSEPs + 2 μg/mL),"synergy, P. aeruginosa ([2]; 30 kV/cm NSEPs + 2 μg/mL)",change in E. coli population [3],inactivation of K. pneumoniae vs NSEPs ([1]; 20 kV/cm NSEPs + 2 μg/mL),inactivation of K. pneumoniae vs NSEPs ([1]; 20 kV/cm NSEPs + 20 μg/mL),"synergy (synergistic inactivation), MRSA ([4]; 20 μg/mL + 30 kV/cm EPs)",MRSA 300 inactivation compared to using only the NSEPs ([4]; 20 μg/mL + 30 kV/cm NSEPs)
CN[C@H](CC(C)C)C(=O)N[C@H]1C(=O)N[C@@H](CC(N)=O)C(=O)N[C@H]2C(=O)N[C@H]3C(=O)N[C@H](C(=O)N[C@H](C(=O)O)c4cc(O)cc(O)c4-c4cc3ccc4O)[C@H](O)c3ccc(c(Cl)c3)Oc3cc2cc(c3O[C@@H]2O[C@H](CO)[C@@H](O)[C@H](O)[C@H]2O[C@H]2C[C@](C)(N)[C@H](O)[C@H](C)O2)Oc2ccc(cc2Cl)[C@H]1O [vancomycin],1,5,no additional inactivation,up to 2 log,synergy,induced changes,,,,
CC[C@H]1OC(=O)[C@H](C)[C@@H](O[C@H]2C[C@@](C)(OC)[C@@H](O)[C@H](C)O2)[C@H](C)[C@@H](O[C@@H]2O[C@H](C)C[C@H](N(C)C)[C@H]2O)[C@](C)(O)C[C@@H](C)C(=O)[C@H](C)[C@@H](O)[C@]1(C)O [erythromycin],,,no additional inactivation,,,induced changes,,,,
C/C(=C\C(=O)OCCCCCCCCC(=O)O)C[C@@H]1OC[C@H](C[C@@H]2O[C@H]2[C@@H](C)[C@H](C)O)[C@@H](O)[C@H]1O [mupirocin],1,,no additional inactivation,,,induced changes,slight increase,an increase,approximately 1.5 log,improvement
